Laboratory results: patent publication US9233964B2, “Sulfamide piperazine derivatives as protein tyrosine kinase inhibitors and pharmaceutical use therof” (LEO PHARMA A/S, priority 2011, dated 2016)
One block for each molecule: values may come before it.

Tests used:
Format in all cases: biochemical
JAK1 = target: T1, JAK1 (Homo sapiens, UniProt P23458); assay: JAK kinase assay (HTRF, phosphorylation of synthetic peptide), JAK1; settings: catalytic domain, ATP at Km (7 μM); read-out: JAK1 kinase inhibitory activity (EC50)
T1 construct: JAK1 (aa 850-1154) and TYK2 (aa 871-1187) are expressed with an N-terminally fused GST-tag; GST (N); purchased Carna Biosciences, Inc; host or cells: baculovirus expression system
T1 sequence (P23458 850-1154): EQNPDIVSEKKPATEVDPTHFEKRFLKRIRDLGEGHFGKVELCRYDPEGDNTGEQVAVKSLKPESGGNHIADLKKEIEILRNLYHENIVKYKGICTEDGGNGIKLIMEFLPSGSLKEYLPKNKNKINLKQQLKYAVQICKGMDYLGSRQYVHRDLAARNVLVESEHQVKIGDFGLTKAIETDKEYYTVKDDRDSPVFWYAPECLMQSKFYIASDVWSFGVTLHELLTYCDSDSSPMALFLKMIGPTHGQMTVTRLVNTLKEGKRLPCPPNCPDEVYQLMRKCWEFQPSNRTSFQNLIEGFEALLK
Summary of the method: (§1)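 Catalytic-domain human JAK1 (GST-tagged, aa 850-1154) or His-tagged JAK2, baculovirus-expressed, phosphorylated 1 µM biotinylated TK peptide at Km ATP (JAK1 7 µM, 10 mM MgCl2, 50 nM SEB; JAK2 4 µM, 5 mM MgCl2) in pH 7.0 Hepes, 20-30 min RT. EDTA stop; overnight streptavidin-XL665/cryptate HTRF read.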

JAK2 = target: T2, JAK2 (Homo sapiens, UniProt O60674); assay: JAK kinase assay (HTRF, phosphorylation of synthetic peptide), JAK2; settings: catalytic domain, ATP at Km (4 μM); read-out: JAK2 kinase inhibitory activity (EC50)
T2 construct: All four purified enzymes contain only the catalytic domain; His (N); purchased Carna Biosciences, Inc; host or cells: baculovirus expression system
T2 sequence (O60674 849-1124 limits assumed): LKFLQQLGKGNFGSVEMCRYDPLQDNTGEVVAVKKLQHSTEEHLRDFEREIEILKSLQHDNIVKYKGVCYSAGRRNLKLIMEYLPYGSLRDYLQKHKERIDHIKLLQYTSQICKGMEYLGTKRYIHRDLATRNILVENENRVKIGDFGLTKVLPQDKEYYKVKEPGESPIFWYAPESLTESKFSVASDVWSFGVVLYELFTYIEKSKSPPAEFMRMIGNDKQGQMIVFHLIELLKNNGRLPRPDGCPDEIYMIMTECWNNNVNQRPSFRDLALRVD
Summary of the method: as §1

JAK3 = target: T3, JAK3 (Homo sapiens, UniProt P52333); assay: JAK kinase assay (HTRF, phosphorylation of synthetic peptide), JAK3; settings: catalytic domain, ATP at Km (2 μM); read-out: JAK3 kinase inhibitory activity (EC50)
T3 construct: All four purified enzymes contain only the catalytic domain; His (N); purchased Carna Biosciences, Inc; host or cells: baculovirus expression system
T3 sequence (P52333 822-1111 limits assumed): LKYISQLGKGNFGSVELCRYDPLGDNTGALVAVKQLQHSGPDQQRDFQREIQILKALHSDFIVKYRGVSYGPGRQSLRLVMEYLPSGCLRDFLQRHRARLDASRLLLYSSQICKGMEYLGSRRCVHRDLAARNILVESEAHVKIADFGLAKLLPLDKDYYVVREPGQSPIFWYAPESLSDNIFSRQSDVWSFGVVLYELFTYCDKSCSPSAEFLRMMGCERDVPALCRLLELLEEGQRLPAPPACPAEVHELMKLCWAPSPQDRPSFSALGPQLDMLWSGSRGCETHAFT

TYK2 = target: T4, TYK2 (Homo sapiens, UniProt P29597); assay: JAK kinase assay (HTRF, phosphorylation of synthetic peptide), TYK2; settings: catalytic domain, ATP at Km (13 μM); read-out: TYK2 kinase inhibitory activity (EC50)
T4 construct: JAK1 (aa 850-1154) and TYK2 (aa 871-1187) are expressed with an N-terminally fused GST-tag; GST (N); purchased Carna Biosciences, Inc; host or cells: baculovirus expression system
T4 sequence (P29597 871-1187): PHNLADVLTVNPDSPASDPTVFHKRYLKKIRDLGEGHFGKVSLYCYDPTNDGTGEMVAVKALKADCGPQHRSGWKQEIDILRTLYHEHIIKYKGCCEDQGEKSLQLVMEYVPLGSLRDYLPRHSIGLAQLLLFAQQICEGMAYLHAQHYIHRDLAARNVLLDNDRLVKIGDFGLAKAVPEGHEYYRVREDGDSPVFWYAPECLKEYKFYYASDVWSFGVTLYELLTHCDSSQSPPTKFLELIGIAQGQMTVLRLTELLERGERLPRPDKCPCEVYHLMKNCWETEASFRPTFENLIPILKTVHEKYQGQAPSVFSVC
Summary of the method: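 1 µM biotinylated TK peptide at Km ATP in pH 7.0 Hepes, 20-30 min RT. EDTA stop; overnight streptavidin-XL665/cryptate HTRF read.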

SMILES: CN(Cc1ccc(OC(F)(F)F)cc1)S(=O)(=O)N1CCN(c2ncnc3[nH]ccc23)CC12CC2 [Example 80, N-methyl-5-(7H-pyrrolo[2,3-d]pyrimidin-4-yl)-N-[[4-(trifluoromethoxy)phenyl]methyl]-5,8-diazaspiro[2.5]octane-8-sulfonamide]
EC50 (JAK1): 100 to 500 nM
EC50 (JAK2): 100 to 500 nM
EC50 (JAK3): > 500 nM
EC50 (TYK2): > 500 nM

SMILES: O=S(=O)(N(CCO)C1CCC1)N1CCN(c2ncnc3[nH]ccc23)CC12CC2 [Example 101, N-cyclobutyl-N-(2-hydroxyethyl)-5-(7H-pyrrolo[2,3-d]pyrimidin-4-yl)-5,8-diazaspiro[2.5]octane-8-sulfonamide]
EC50 (JAK1): < 100 nM
EC50 (JAK2): < 100 nM
EC50 (JAK3): < 100 nM
EC50 (TYK2): < 100 nM

SMILES: CN(CC1CCC1)S(=O)(=O)N1CCN(c2ncnc3[nH]ccc23)CC12CC2 [Example 60, N-(cyclobutylmethyl)-N-methyl-5-(7H-pyrrolo[2,3-d]pyrimidin-4-yl)-5,8-diazaspiro[2.5]octane-8-sulfonamide]
EC50 (JAK1): < 100 nM
EC50 (JAK2): < 100 nM
EC50 (JAK3): < 100 nM
EC50 (TYK2): < 100 nM

SMILES: CN(C[C@H]1CCC(=O)N1)S(=O)(=O)N1CCN(c2ncnc3[nH]ccc23)CC12CC2 [Example 184, N-methyl-N-[[(2R)-5-oxopyrrolidin-2-yl]methyl]-5-(7H-pyrrolo[2,3-d]pyrimidin-4-yl)-5,8-diazaspiro[2.5]octane-8-sulfonamide]
EC50 (JAK1): < 100 nM
EC50 (JAK2): < 100 nM
EC50 (JAK3): < 100 nM
EC50 (TYK2): < 100 nM

SMILES: CN(CC(=O)c1ccccc1)S(=O)(=O)N1CCN(c2ncnc3[nH]ccc23)CC12CC2 [Example 12, 7-(7H-Pyrrolo[2,3-d]pyrimidin-4-yl)-4,7-diaza-spiro[2.5]octane-4-sulfonic acid methyl-(2-oxo-2-phenyl-ethyl)-amide]
EC50 (JAK1): < 100 nM
EC50 (JAK2): < 100 nM
EC50 (JAK3): 100 to 500 nM
EC50 (TYK2): > 500 nM

SMILES: CN(CC1CC(F)(F)CN1)S(=O)(=O)N1CCN(c2ncnc3[nH]ccc23)CC12CC2 (centres unmarked) [Int 28]
EC50 (JAK1): < 100 nM
EC50 (JAK2): < 100 nM
EC50 (JAK3): < 100 nM
EC50 (TYK2): < 100 nM

SMILES: O=S(=O)(NCC1CCC(F)(F)CC1)N1CCN(c2ncnc3[nH]ccc23)CC12CC2 [Example 148, N-[(4,4-difluorocyclohexyl)methyl]-5-(7H-pyrrolo[2,3-d]pyrimidin-4-yl)-5,8-diazaspiro[2.5]octane-8-sulfonamide]
EC50 (JAK1): < 100 nM
EC50 (JAK2): < 100 nM
EC50 (JAK3): < 100 nM
EC50 (TYK2): 100 to 500 nM

SMILES: Cc1noc(C)c1CCN(C)S(=O)(=O)N1CCN(c2ncnc3[nH]ccc23)CC12CC2 [Example 32, 7-(7H-Pyrrolo[2,3-d]pyrimidin-4-yl)-4,7-diaza-spiro[2.5]octane-4-sulfonic acid [2-(3,5-dimethyl-isoxazol-4-yl)-ethyl]-methyl-amide]
EC50 (JAK1): < 100 nM
EC50 (JAK2): < 100 nM
EC50 (JAK3): < 100 nM
EC50 (TYK2): 100 to 500 nM

SMILES: CC(C)CN(CCc1ccccc1)S(=O)(=O)N1CCN(c2ncnc3[nH]ccc23)CC12CC2 [Example 6, 7-(7H-Pyrrolo[2,3-d]pyrimidin-4-yl)-4,7-diaza-spiro[2.5]octane-4-sulfonic acid isobutyl-phenethyl-amide]
EC50 (JAK1): 100 to 500 nM
EC50 (JAK2): < 100 nM
EC50 (JAK3): 100 to 500 nM
EC50 (TYK2): > 500 nM

SMILES: CN(Cc1ccccc1F)S(=O)(=O)N1CCN(c2ncnc3[nH]ccc23)CC12CC2 [Example 77, N-[(2-fluorophenyl)methyl]-N-methyl-5-(7H-pyrrolo[2,3-d]pyrimidin-4-yl)-5,8-diazaspiro[2.5]octane-8-sulfonamide]
EC50 (JAK1): < 100 nM
EC50 (JAK2): < 100 nM
EC50 (JAK3): 100 to 500 nM
EC50 (TYK2): 100 to 500 nM

SMILES: O=S(=O)(N(CCO)C1COC1)N1CCN(c2ncnc3[nH]ccc23)CC12CC2 [Example 116, N-(2-hydroxyethyl)-N-(oxetan-3-yl)-5-(7H-pyrrolo[2,3-d]pyrimidin-4-yl)-5,8-diazaspiro[2.5]octane-8-sulfonamide]
EC50 (JAK1): < 100 nM
EC50 (JAK2): < 100 nM
EC50 (JAK3): 100 to 500 nM
EC50 (TYK2): > 500 nM

SMILES: CN(C[C@@H]1CC(F)(F)CN1S(=O)(=O)CC1CC1)S(=O)(=O)N1CCN(c2ncnc3[nH]ccc23)CC12CC2 [Example 164, N-[[(2S)-1-(cyclopropylmethylsulfonyl)-4,4-difluoro-pyrrolidin-2-yl]methyl]-N-methyl-5-(7H-pyrrolo[2,3-d]pyrimidin-4-yl)-5,8-diazaspiro[2.5]octane-8-sulfonamide]
EC50 (JAK1): < 100 nM
EC50 (JAK2): < 100 nM
EC50 (JAK3): < 100 nM
EC50 (TYK2): < 100 nM

SMILES: CN(C[C@@H]1CC(F)(F)CN1C(=O)CCO)S(=O)(=O)N1CCN(c2ncnc3[nH]ccc23)CC12CC2 [Example 155, N-[[(2S)-4,4-difluoro-1-(3-hydroxypropanoyl)pyrrolidin-2-yl]methyl]-N-methyl-5-(7H-pyrrolo[2,3-d]pyrimidin-4-yl)-5,8-diazaspiro[2.5]octane-8-sulfonamide]
EC50 (JAK1): < 100 nM
EC50 (JAK2): < 100 nM
EC50 (JAK3): < 100 nM
EC50 (TYK2): < 100 nM

Further lines, results first:

EC50 (JAK1): < 100 nM
EC50 (JAK2): < 100 nM
EC50 (JAK3): 100 to 500 nM
EC50 (TYK2): 100 to 500 nM
SMILES: CN(C1CN(C(=O)CCO)C1)S(=O)(=O)N1CCN(c2ncnc3[nH]ccc23)CC12CC2 [Example 179, N-[1-(3-hydroxypropanoyl)azetidin-3-yl]-N-methyl-5-(7H-pyrrolo[2,3-d]pyrimidin-4-yl)-5,8-diazaspiro[2.5]octane-8-sulfonamide]

EC50 (JAK1): < 100 nM
EC50 (JAK2): < 100 nM
EC50 (JAK3): 100 to 500 nM
EC50 (TYK2): > 500 nM
SMILES: CN(CCCc1ccc(C#N)cc1)S(=O)(=O)N1CCN(c2ncnc3[nH]ccc23)CC12CC2 [Example 29, 7-(7H-Pyrrolo[2,3-d]pyrimidin-4-yl)-4,7-diaza-spiro[2.5]octane-4-sulfonic acid [3-(4-cyano-phenyl)-propyl]-methyl-amide]

EC50 (JAK1): < 100 nM
EC50 (JAK2): < 100 nM
EC50 (JAK3): < 100 nM
EC50 (TYK2): > 500 nM
SMILES: CCN(CC1CCC(F)(F)CC1)S(=O)(=O)N1CCN(c2ncnc3[nH]ccc23)CC12CC2 [Example 149, N-[(4,4-difluorocyclohexyl)methyl]-N-ethyl-5-(7H-pyrrolo[2,3-d]pyrimidin-4-yl)-5,8-diazaspiro[2.5]octane-8-sulfonamide]

EC50 (JAK1): < 100 nM
EC50 (JAK2): < 100 nM
EC50 (JAK3): 100 to 500 nM
EC50 (TYK2): > 500 nM
SMILES: O=S(=O)(N(CCN1CCOCC1)C1CCC1)N1CCN(c2ncnc3[nH]ccc23)CC12CC2 [Example 106, N-cyclobutyl-N-(2-morpholinoethyl)-5-(7H-pyrrolo[2,3-d]pyrimidin-4-yl)-5,8-diazaspiro[2.5]octane-8-sulfonamide]

EC50 (JAK1): < 100 nM
EC50 (JAK2): < 100 nM
EC50 (JAK3): < 100 nM
EC50 (TYK2): 100 to 500 nM
SMILES: CN(Cc1cccc(F)c1)S(=O)(=O)N1CCN(c2ncnc3[nH]ccc23)CC12CC2 [Example 78, N-[(3-fluorophenyl)methyl]-N-methyl-5-(7H-pyrrolo[2,3-d]pyrimidin-4-yl)-5,8-diazaspiro[2.5]octane-8-sulfonamide]

EC50 (JAK1): < 100 nM
EC50 (JAK2): < 100 nM
EC50 (JAK3): < 100 nM
EC50 (TYK2): > 500 nM
SMILES: CC(C)(C)OC(=O)NS(=O)(=O)N1CCN(c2ncnc3[nH]ccc23)CC12CC2 [Int 53]

EC50 (JAK1): < 100 nM
EC50 (JAK2): < 100 nM
EC50 (JAK3): < 100 nM
EC50 (TYK2): < 100 nM
SMILES: CN(C[C@@H]1CC(F)(F)CN1C=O)S(=O)(=O)N1CCN(c2ncnc3[nH]ccc23)CC12CC2 [Example 157, N-[[(2S)-4,4-difluoro-1-formyl-pyrrolidin-2-yl]methyl]-N-methyl-5-(7H-pyrrolo[2,3-d]pyrimidin-4-yl)-5,8-diazaspiro[2.5]octane-8-sulfonamide]

EC50 (JAK1): < 100 nM
EC50 (JAK2): < 100 nM
EC50 (JAK3): < 100 nM
EC50 (TYK2): < 100 nM
SMILES: CN(CCC1CC1)S(=O)(=O)N1CCN(c2ncnc3[nH]ccc23)CC12CC2 [Example 82, N-(2-cyclopropylethyl)-N-methyl-5-(7H-pyrrolo[2,3-d]pyrimidin-4-yl)-5,8-diazaspiro[2.5]octane-8-sulfonamide]

EC50 (JAK1): < 100 nM
EC50 (JAK2): < 100 nM
EC50 (JAK3): 100 to 500 nM
EC50 (TYK2): 100 to 500 nM
SMILES: CN(CC1CCN(C(=O)CCO)CC1)S(=O)(=O)N1CCN(c2ncnc3[nH]ccc23)CC12CC2 [Example 151, N-[[1-(3-hydroxypropanoyl)-4-piperidyl]methyl]-N-methyl-5-(7H-pyrrolo[2,3-d]pyrimidin-4-yl)-5,8-diazaspiro[2.5]octane-8-sulfonamide]

EC50 (JAK1): < 100 nM
EC50 (JAK2): < 100 nM
EC50 (JAK3): < 100 nM
EC50 (TYK2): 100 to 500 nM
SMILES: C=C1CCC(CN(C)S(=O)(=O)N2CCN(c3ncnc4[nH]ccc34)CC23CC3)CC1 [Example 87, N-methyl-N-[(4-methylenecyclohexyl)methyl]-5-(7H-pyrrolo[2,3-d]pyrimidin-4-yl)-5,8-diazaspiro[2.5]octane-8-sulfonamide]
